# Assay results from US20230293428A1, “Drug delivery via contact lenses and similar ophthalmic devices” (Colorado School of Mines, priority 2021, published 2023).
# Where a name gives a salt, the structure may show the parent alone.
# Experiments:
# [1] = In vitro timolol release from drug-loaded contact lenses into PBS, fitted to Fick's diffusion (perfect sink) model; type: physicochemical
# Description: After drug loading, the lenses were removed from the timolol maleate solution and gently wiped with KimWipe to remove the excess solution remaining on the surface. Each lens was then placed in 3 mL of fresh PBS solution for in vitro drug release. The optical absorption spectra of the release media were measured by the same spectrophotometer used in Example 2. The concentration of the timolol in the release medium was determined by fitting the optical absorption spectra in the range of 260 to 340 nm with the calibration spectrum of timolol maleate using MATLAB's minimization of least square error method. The drug release profiles were fitted using a perfect sink model to determine drug diffusivity. By solving the Fick's law diffusion equation, the mass percent of the drug released as a function of time is given by […] To further investigate this effect, the diffusion coefficients of timolol in the lenses were calculated by fitting the release curves to Fick's diffusion equation as described above. […] As Table 5 illustrates, the diffusion coefficients of timolol from these lenses are about a third of the diffusion coefficient from control (blank/unloaded) lenses (circular data points in FIG. 5), which results in extension of release by about 10 hours.
# [2] = Partition coefficient of timolol maleate between contact lens and loading solution; type: physicochemical
# Description: Timolol maleate was dissolved in PBS to prepare a 1.5 mg/mL solution. Each hydrated contact lens (both blank and vitamin E-loaded) was placed in 3 mL of this solution for 7 days to load the drug in the lenses.
# The partition coefficient K of the drug is defined as the ratio of the concentration of the drug in the lens to the concentration of the drug in the medium when equilibrium is reached during the drug loading process. […] The concentration in the lens after 7 days of loading can be determined by dividing the total mass of the drug in the lens by the volume, and the mass of the drug can be determined from the release data based on the assumption that 100% of the drug is released due to the large volume of release medium compared to the lens volume. Therefore, the partition coefficient K is calculated as
# where Clens and Cloading are the concentration of the drug in the lens and the loading solution at equilibrium, respectively, Vrelease and Vlens are the volume of the release medium and the contact lens, respectively, and Crelease is the final concentration of the drug in the release medium.
# [3] = lens with 0 wt % vitamin E (blank), solvent n/a
# [4] = lens with 8.4 wt % vitamin E, loaded from pure EtOH
# [5] = lens with 8.6 wt % vitamin E, loaded from 75:25 EtOH:H2O
# [6] = lens with 9.3 wt % vitamin E, loaded from 85:15 EtOH:H2O
# [7] = lens with 19.3 wt % vitamin E, loaded from pure EtOH
# [8] = lens with 19.9 wt % vitamin E, loaded from 85:15 EtOH:H2O
# [9] = lenses with vitamin E loads of 8 to 10 wt %
structure (smiles),measurement,setting,value
"CC(C)(C)NC[C@H](O)COc1nsnc1N1CCOCC1 [timolol maleate, Timolol maleate]","D, diffusion coefficient of timolol maleate from contact lens",[1]; [3],2.04 · 10^−13 ± 0 m^2/s
same,"D, diffusion coefficient of timolol maleate from contact lens",[1]; [4],(7.42 ± 1.49) · 10^−14 m^2/s
same,"D, diffusion coefficient of timolol maleate from contact lens",[1]; [5],(6.20 ± 0.329) · 10^−14 m^2/s
same,"D, diffusion coefficient of timolol maleate from contact lens",[1]; [6],5.09 · 10^−14 ± 0 m^2/s
same,"D, diffusion coefficient of timolol maleate from contact lens",[1]; [7],(1.62 ± 0.219) · 10^−14 m^2/s
same,"D, diffusion coefficient of timolol maleate from contact lens",[1]; [8],(13.2 ± 0.936) · 10^−15 m^2/s
same,diffusion coefficient of timolol relative to control (blank/unloaded) lenses,[1]; [9],about a third
same,extension of timolol release versus control (blank) lenses,[1]; [9],about 10 hours
same,timolol release time,"[1]; lenses with vitamin E loads of 8 to 10 wt %, made from different loading solutions",about 12 hours
same,duration of timolol release,"[1]; lenses with vitamin E loads of 19 to 20 wt %, two different solutions",more than 70 hours
same,duration of release of timolol from the lens,[1]; vitamin E loads of about 10 wt %,about 10 hours
same,duration of release of timolol from the lens,[1]; vitamin E loads of about 20 wt %,about 70 hours
same,"K, partition coefficient of timolol maleate in contact lens",[2]; [3],0.7125 ± 0.0168
same,"K, partition coefficient of timolol maleate in contact lens",[2]; [4],0.6050 ± 0.0171
same,"K, partition coefficient of timolol maleate in contact lens",[2]; [5],0.6757 ± 0.0152
same,"K, partition coefficient of timolol maleate in contact lens",[2]; [6],0.7969 ± 0.0242
same,"K, partition coefficient of timolol maleate in contact lens",[2]; [7],0.5739 ± 0.0069
same,"K, partition coefficient of timolol maleate in contact lens",[2]; [8],0.6108 ± 0.0489
